# In patent US20140243415A1, “COMPOUNDS INHIBITING GALECTIN-1 EXPRESSION, CANCER CELL PROLIFERATION, INVASION, AND TUMORIGENESIS” (ONCOETHIX SA, priority 2011, published 2014):
# Assays:
# galectin-1 = target: T1, galectin-1 (Homo sapiens, UniProt P09382); test: Immunofluorescence of galectin-1 in SQ20B cells; format: cell-based
# T1 construct: Western Blot of galectin-1 on SQ20B cells treated with 3 μM OTX-008 for 24 h, 48 h and 72 h; endogenous in cells; host or cells: SQ20B (ATCC)
# Method: FIG. 3. Effects of OTX-008 on galectin-1 expression and localization. A—Western Blot of galectin-1 on SQ20B cells treated with 3 μM OTX-008 for 24 h, 48 h and 72 h. B and C—Immunofluorescence of galectin-1 on SQ20B cells treated with 3 μM OTX-008 for 24 and 48 h. B—OTX-008 treatment decreases galectin-1 immunostaining in SQ20B cells. C—Galectin-1 translocates into the nucleus after OTX-008 exposure. D—Western Blot of p-AKTser473, AKT, p-S6, p-ERK1/2, ERK and p-PKCα in SQ20B cells treated with 3 μM OTX-008 for 10 min, 1 h, 2 h, 5 h and 24 h.
# The cells were grown on cover slips at 37° C. overnight. The growth media was then removed; the cells were washed with PBS and fixed in 4% of paraformaldhyde for 15 min and permeabilized with PBS/tritonX100 (1:500) then washed again with PBS. Incubation with primary antibodies was performed at 4° C. overnight (galectin-1, 1:100; Abcam, Cambridge, Mass., USA), followed by the incubation with the secondary antibodies (anti-mouse, 1:100; Cell Signaling, Saint Quentin Yvelines, France) for 1 h at room temperature in the dark. The nuclei were stained with Dapi 1:10000 (Santa Cruz Biotechnology, Santa Cruz, Calif., USA). The images were captured and analyzed with a Zeiss observer Z1 microscope. Images quantification was performed using Histolab Software (Microvision, France) subtracting the background. Magnification ×20 and ×40.
# wee1 (serine 642) = test: Western blot of phosphorylated wee1 in SQ20B; format: cell-based, human; conditions: 3 μM OTX-008 for 72 h
# Method: Cells were lysed in buffer containing 50 mM HEPES (pH 7.6), 150 mM NaCl, 1% Triton X-100, 2 mM sodium vanadate, 100 mM NaF, and 0.4 mg/ml phenylmethylsulfonyl fluoride. Equal amounts of protein (30 μg/lane) were subjected to SDS-PAGE and transferred to nitrocellulose membranes. Membranes were blocked with 5% milk in 0.05% Tween 20/phosphate-buffered saline and then incubated with the primary antibody overnight. Membranes were then washed and incubated with the secondary antibody conjugated to horseradish peroxidase. Bands were visualized by using the enhanced chemiluminescence Western blotting detection system. Densitometric analysis was performed under conditions that yielded a linear response. The following antibodies were used: anti-p-cdc2 (tyr15), anti-p-wee1 (ser642), anti-p-p44/42 MAPK (thr202/tyr204), anti-p44/42, anti-p-AKT (ser473), anti-AKT, anti-p-S6 (ser235/236) (Cell Signaling, Saint Quentin Yvelines, France), anti-p-PKCα (ser657) (BD Biosciences, Le-Pont-de-Claix, France) and anti-galectin-1 (Abcam, Cambridge, Mass., USA). All antibodies were used at a 1:1000 dilution.
# To study the mechanism of OTX-008-induced inhibition of cell proliferation, the effect of OTX-008 on cell cycle in SQ20B cells was examined (FIG. 5B). […] Activation of cdc2 (cdk1) by de-phosphorylation of tyrosine 15 is required for G2/M transition. […]
# SQ20B cells = test: Matrigel invasion assay; format: cell-based, human
# Method: FIG. 5. Modulation of the galectin-1/semaphorin-3A/neuropilin system in SQ20B cells. A—Effects of galectin-1 (Gall), semaphorin-3A (Sema3A), lactose, with or without four different concentrations of OTX-008 on SQ20B growth at day 6. Embedded figure: Proliferation assay of SQ20B and SQ-shGAL1. B—In vitro matrigel invasion assay of SQ20B exposed to […] galectin-1, 1 μg/ml semaphorin-3A, 200 ng/ml lactose or 10 μM UO126 with or without 3 μM OTX-008. Embedded figure: In vitro matrigel invasion assay of SQ20B and SQ-shGAL1. Invasion was quantified after 48 h by counting the average number of invaded cells.
# 8 μm membranes were coated with Matrigel (50 μg). The inserts were placed within a 24-well chamber containing 0.6 ml of RPMI 1640 medium with 20% fetal bovine serum as chemoattractant. 10^5 cells were seeded into the inserts suspended in 0.3 ml of serum-free RPMI. After incubation for 48 h at 37° C., the upper surface of the filter was scraped to remove non-invasive cells. Invasive cells were fixed and stained with a Diff Quik detection Kit (Dade Behring, Paris, France). For quantification, the average number of invading cells per field was assessed by counting 9 random fields under a light microscope (400×).
# Galectin-1 may form extracellular lattices counteracting the inhibitory properties of semaphorin-3A on neuropilin-1, eventually leading to the modulation of the vascular endothelial growth factor (VEGFR) and platelet derived growth factor (PDGFR) receptors, fibronectin, and laminin activity SQ20B cells expressed significant mRNA and protein levels of semaphorin-3A and neuropilin-1, PDGFRa&(, VEGF A-D, and VEGFR1-3 (Supplementary FIG. 2A). Thus, SQ20B cells were selected to evaluate the effects of OTX-008 on galectin-1/semaphorin-3A interactions. No difference between SQ20B cells growing in plastic or fibronectin- and laminin-coated plates. […] Galectin-1 and semaphorin-3A induced invasion was inhibited by OTX-008 mimicking the effects of lactose in this model.
# T1 sequence (P09382 whole entry): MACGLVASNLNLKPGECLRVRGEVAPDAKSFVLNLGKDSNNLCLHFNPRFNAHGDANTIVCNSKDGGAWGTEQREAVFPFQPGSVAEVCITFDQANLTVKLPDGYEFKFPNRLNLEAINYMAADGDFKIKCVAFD
smiles,measurement,setting,value
CN(C)CCNC(=O)COc1c2cccc1Cc1cccc(c1OCC(=O)NCCN(C)C)Cc1cccc(c1OCC(=O)NCCN(C)C)Cc1cccc(c1OCC(=O)NCCN(C)C)C2 [OTX-008],galectin-1 localization,galectin-1; 3 μM OTX-008,translocates from the cytoplasm to the nucleus
same,galectin-1 expression in the cytoplasm (immunofluorescence),"galectin-1; 3 μM OTX-008, 24 and 48 h",decrease galectin-1 expression
same,wee1 phosphorylation on serine 642,wee1 (serine 642),decreased inactivating phosphorylation of wee1
same,"invasion of SQ20B cells, agent alone","SQ20B cells; 48 h, 1 g/ml galectin-1, 1 μg/ml semaphorin-3A, 10 μM UO126, 3 μM OTX-008",inhibits proliferation and invasion
same,galectin-1 and semaphorin-3A induced invasion,"SQ20B cells; SQ20B, 3 μM OTX-008, 48 h",inhibited
